The values that follow come from patent publication US20250387404A1, “FORMULATIONS AND METHODS FOR TREATING EPIDERMOLYSIS BULLOSA SIMPLEX AND RELATED CONDITIONS” (RUTGERS, THE STATE UNIVERSITY OF NEW JERSEY, priority 2022, published 2025).

The subject of data set [1] is GFP-K18 R90C lentivirus-transduced A549 cells. Description: Keratin dots-to-filaments assay (high-throughput screen and validation). The class given is cell-based, human. The settings on record: 5 μM, 48 h. As to the method:
The screening strategy was performed as described. In brief, human A549 lung adenocarcinoma cells (American Type Culture Collection) were seeded into six-well plates overnight and then transduced with K8 WT and either the GFP-tagged K18 WT or GFP-tagged K18 R90C lentivirus for 2d. A549 cells were selected for the screening assay because of their high transduction efficiency and readily visualized keratin filaments. The transduced cells were seeded into 384-well plates for 1d followed by addition of compounds from the Navigator Pathways (Center for Chemical Genomics, University of Michigan). After 48 h, cells were fixed counterstained with 4′,6-diamidino-2-phenylindole (DAPI; Invitrogen). Images were taken with the Image Xpress Micro XLS High Content Imaging System then analyzed using MetaXpress software (Molecular Devices). Compounds that decrease the number of keratin dots/cell and promote keratin filament formation were selected for secondary validation. 945 compounds from the Navigator Pathways library were screened. The library consists of several daughter sets that cover a range of pathways including Autophagy, Wnt, Epigenetics, Protein Kinases, Proteases, Redox, Cannabinoids, and Natural Products.

In data set [2] the test system is GFP-K18 R90C transduced A549 cells. Briefly: IFN-γ/FasL-induced apoptosis in cultured cells. The data set is classed as cell-based, human. As to the method: (§1) A549 cells were cultured using Ham's F-12K medium (Thermo Fisher Scientific) supplemented with 10% fetal bovine serum (Sigma Aldrich) and 1% penicillin and 10,000 U/mL streptomycin (Life Technologies).
The test system of data set [3] is K18 and K8. Briefly: K8/K18 phosphorylation by mass spectrometry and immunoblot. The class given is cell-based, human.
Protocol: Cell and liver samples were solubilized using a Dounce homogenizer in 2% SDS-containing PBS supplemented with protease inhibitor (Thermo Fisher Scientific), then sonicated 80× (is pulse, intensity 70) (Fisher Scientific; Model: FB50). Lysates were pelleted (16,000 g×10 min/20° C.) and the supernatant was used for subsequent analysis. Equal amounts of protein were separated by SDS-polyacrylamide gel electrophoresis (PAGE) then transferred to polyvinylidene fluoride membranes (Bio-Rad) followed by immunoblotting. For immunoprecipitation, K18 R90C-transduced A549 cells were homogenized in PBS containing 1% Nonidet P-40 (NP40), protease inhibitors, and okadaic acid (Cayman Chemical; 1 μg/mL). […] For mass spectrometry, conjugated beads were suspended in PBS-buffered 8M urea to yield ˜6 g (in 60 μl urea-containing buffer). Samples were separated SDS-PAGE, followed by in-gel tryptic digestion then LC-MS/MS analysis. Peptides were identified by the Mass Spectrometry Facility at Rutgers University.
The subject of data set [4] is K18 R90C mice. Description: Fas-induced liver injury. The data set is classed as in vivo, mouse. The settings on record: for hepatocyte keratin filament organization: PP2 1 mg/kg ip daily 4d; for increase in serum alanine aminotransferase (ALT) level after Fas treatment: single 1× pretreatment (PKC412 25 mg/kg, PP2 1 mg/kg, Vem 1 mg/kg), Fas antibody 0.25 μg/g.
Protocol: (§3) All mouse experiments were performed using a protocol approved by Rutgers University Institutional Animal Care and Use Committee. Previously described 4-6 weeks-old F22 male and female mice that express the human K18 R90C mutant (FVB/N background) were used. […] For immunofluorescence experiments, mouse livers were collected after CO2 euthanasia and embedded in optimum-cutting-temperature compound then stored (−80° C.). For Fas experiments, mice were treated by intraperitoneal administration of Fas antibody (0.15 μg/g body weight; BD Pharmingen). After 5 h, mice were sacrificed followed by collection of blood and liver. Livers were fixed with 10% formalin and analyzed by hematoxylin-eosin (H&E) staining or TUNEL assay. A hemorrhage score was calculated using QuPath (Quantitative Pathology & Bioimage Analysis) and ImageJ software. Apoptosis was estimated using TUNEL assay detection kit (ApopTag Peroxidase In Situ Apoptosis; Sigma Aldrich). Fluorescence images were acquired with the same exposure time and used to count the apoptotic nuclei. Serum alanine aminotransferase (ALT) levels were determined using the Liquid ALT Reagent Set (Pointe Scientific). For the acetaminophen (APAP) experiments, the liver histopathology score was determined using a 0-4 scoring system. Scoring was conducted by two scorers blinded to treatment conditions, and the average score was used.
Data set [5] is described as follows: PP2 content in liver and serum by UPLC-UV. The data set is classed as in vivo, mouse. As to the method: Mice were sacrificed and livers were harvested at the indicated times. […] The column was washed once with 1 mL 100% methanol and eluted with 1 mL 5% NH4OH in methanol. […] The evaporated sample was resuspended in […] injection solvent [80% (5% ammonium hydroxide in methanol)+20% (10 mM ammonium formate+0.1% formic acid)], and […] was injected for ultra-performance liquid chromatography (UPLC). […] The supernatant was transferred to new tubes then processed further for SPE and UPLC exactly as carried out for the liver tissue extracts.
A Waters ACQUITY UPLC system equipped with Empower software and H-Class PLUS (CH-A) Core was used. […] The column was eluted at flow rate of 0.5 ml/min with linear gradients of solvents A and B (A, 10 mM ammonium formate, 0.1% formic acid in water; B, 0.1% formic acid in methanol).

Data set [6] has as its system A549 cells. The settings on record: PP2 10 μM, A549 cells expressing K18 R90C. On the procedure: as §1
Data set [7] deals with K18 R90C mice.
Protocol: as §3
For data set [8] the following is noted: K18 R90C mice, PP2 1 mg/kg intraperitoneally daily for 4d, female and male.
Protocol: as §3
In data set [9] the test system is K14.R125C keratinocytes. Description: Keratin aggregates by K5 immunofluorescence microscopy. The class given is cell-based, human. The settings on record: 0.8 μM PKC412, 24 h; DMSO-treated cells mean=56%.
Protocol: Skin samples were obtained for diagnostic purposes. After written informed consent, primary keratinocytes were isolated from the remaining tissue. […] Keratinocytes were grown in low calcium Gibco™ Keratinocyte-SFM Medium supplemented with L-glutamine, EGF and BPE (LCM, Thermo Fisher Scientific) and cultured at 37° C., 5% CO2 and 90% humidity. To induce cell-cell contacts, LCM was changed to high calcium medium (HCM, 1.2 mM CaCl2) and cells were incubated for 24 h.
Data set [10] has as its system K14.R125C keratinocytes. Briefly: Epithelial sheet assay (dispase assay). The class given is cell-based, human. The settings on record: 1 μM, high calcium medium, 24 h, vs vehicle-treated monolayers. On the procedure: (§2) Prior to the assay, cells were washed twice with 1.2 mM Ca^2+ PBS and incubated for 30 min at 37° C. with Dispase II (Roche Diagnostics, 9 mg/ml in 1:2 HEPES buffer:keratinocytes medium, 2 mM Ca^2+). Free-floating cell sheets were transferred to a 15 ml Falcon tube containing 5 ml 1.2 mM Ca^2+ PBS and subjected to 25 rpm overhead rotation (WiseMix overhead rotator, Witeg Labortechnik, Germany) for 1 min at room temperature. Image acquisition was done using Nikon SMZ 1500 binocular and image processing by ImageJ.

For data set [11], the system named is K14.R125G keratinocytes. Briefly: Epithelial sheet assay (dispase assay). The data set is classed as cell-based, human. The settings on record: 1 μM, high calcium medium, 24 h. As to the method: as §2
The test system of data set [12] is normal human keratinocytes (NHK). Briefly: Electrochemical impedance spectroscopy on multielectrode arrays. The settings on record: 24 h treatment; read-out: EC50 (impedance concentration response curve). The data set is classed as cell-based. The text has this: Skin samples were obtained for diagnostic purposes. After written informed consent, primary keratinocytes were isolated from the remaining tissue. Immortalized human control (NHK, normal human keratinocytes) and EBS keratinocytes (K14.R125C, K14.R125G, K14.N123S, K14.Y415H, K5.G138E/L175F and K5.E477D) were generated (Has et al. (2018) The Position of Targeted Next-generation Sequencing in Epidermolysis Bullosa Diagnosis. Acta Dermato-Venereologica 98:437-40; He Y, Maier K, Leppert J, Hausser I, Schwieger-Briel A, Weibel L, et al. (2016) Monoallelic Mutations in the Translation Initiation Codon of KLHL24 Cause Skin Fragility. Am J Hum Genet 99:1395-404). Keratinocytes were grown in low calcium Gibco™ Keratinocyte-SFM Medium supplemented with L-glutamine, EGF and BPE (LCM, Thermo Fisher Scientific) and cultured at 37° C., 5% CO2 and 90% humidity. […]
Impedimetric measurements on NHK and K14.R125C keratinocytes were performed as previously described. […] Impedance spectra (500 Hz-5 MHz) were automatically recorded every 30 min using the impedance measurement platform based on an Agilent 4294A high-precision impedance analyzer (Agilent Technologies) and the self-developed controlling software IMAT advanced. […] The cell signal (relative impedance) was determined with the self-developed analysis software IDAT v3.7.2.

Data set [13] concerns RXXpS/pT AGC-kinase motif, P-K17 S44, P-DSP S165/S166, P-DSP S2849. Briefly: Immunoblot with phospho-epitope specific antibodies. The data set is classed as cell-based, human. The text has this: Skin samples were obtained for diagnostic purposes. After written informed consent, primary keratinocytes were isolated from the remaining tissue. Immortalized human control (NHK, normal human keratinocytes) and EBS keratinocytes (K14.R125C, K14.R125G, K14.N123S, K14.Y415H, K5.G138E/L175F and K5.E477D) were generated (Has et al. (2018) The Position of Targeted Next-generation Sequencing in Epidermolysis Bullosa Diagnosis. Acta Dermato-Venereologica 98:437-40; He Y, Maier K, Leppert J, Hausser I, Schwieger-Briel A, Weibel L, et al. (2016) Monoallelic Mutations in the Translation Initiation Codon of KLHL24 Cause Skin Fragility. Am J Hum Genet 99:1395-404). Keratinocytes were grown in low calcium Gibco™ Keratinocyte-SFM Medium supplemented with L-glutamine, EGF and BPE (LCM, Thermo Fisher Scientific) and cultured at 37° C., 5% CO2 and 90% humidity. To induce cell-cell contacts, LCM was changed to high calcium medium (HCM, 1.2 mM CaCl2) and cells were incubated for 24 h.
To separate proteins under denaturing conditions, sodium dodecyl sulfate polyacrylamide gel electrophoresis (SDS-PAGE) was performed. Proteins were transferred to nitrocellulose membranes (VWR) using a semi-dry blotter (Armin Baack Labortechnik). Membranes were blocked using 3% (w/v) skim milk/TBS with Tween (TBST) or 3% (w/v) bovine serum albumin (BSA)/TBST and subsequently probed with the appropriate antibodies. Chemiluminescence was detected using ChemoCam Imager (Intas). Band intensity was quantified using ImageJ software.
A general note: In western blotting, separated proteins are transferred to a membrane and probed.

Data set [14] relates to desmoplakin (DSP). Briefly: Desmoplakin localization by immunofluorescence microscopy. The class given is cell-based, human. The settings on record: 1.2 mM CaCl2, vs vehicle-treated cells. As to the method:
Human keratinocytes grown on coverslips were fixed for 5 min in methanol (−20° C.) and 30 sec in acetone (−20° C.). Primary antibodies were diluted in 1% (w/v) BSA in TBS and incubated overnight at 4° C. in a humid chamber. The next day, coverslips were washed in TBS and incubated with the fluorophore-conjugated secondary antibody for 30 min at RT in the dark. DNA was stained with DAPI. Finally, coverslips were washed three times in TBS, rinsed briefly in aqua bidest and mounted with ProLong® Gold antifade reagent (Invitrogen). Images or Z-stacks were acquired with a confocal LSM 780 (Carl Zeiss) equipped with 40×/1.3 NA or 63×/1.4 NA oil immersion objectives and an AxioCam Mrm (Carl Zeiss). Image analysis and maximum intensity projections of Z-stacks was performed using Zen 2012 Blue software (Carl Zeiss). ImageJ was used for image processing.

The test system of data set [15] is K18 and K8. The settings on record: based on prior studies; cited from earlier work.
The conditions of data set [16]: healthy volunteers, single oral dose (50 mg) as microemulsion; cited from earlier work.
Where [17] appears, read: K18 R90C-expressing A549 cells, mass spectrometry, PP2 vs DMSO.
The mark [18] stands for this setting: female mice, PP2 1 mg/kg ip 4d, Fas antibody 0.15 μg/g 5 h.
Setting [19] is: male mice, PP2 1 mg/kg ip 4d, Fas antibody 0.15 μg/g 5 h.
Where [20] appears, read: PKC412 25 mg/kg ip daily 4d, male and female, Fas challenge.

“Also recorded” adds a separate entry of the source. Like-named read-outs stand apart in the source and are kept apart here.

On to `CC(C)(C)n1nc(-c2ccc(Cl)cc2)c2c(N)ncnc21` [PP2, 1-tert-butyl-3-(4-chlorophenyl)-1H-pyrazolo[3,4-d]pyrimidin-4-amine], for which the “percentage of cells with keratin mutant aggregates” value in [1] is recorded as “significantly decreased”. The “induction of apoptosis under basal non-Fas condition (TUNEL)” value in data set [2] (5 μM, no Fas challenge) was “does not induce apoptosis”. In data set [2] (PP2 5 μM 48 h then IFN-γ and FasL), the “cleaved caspases 3 and 7” value is recorded as “decreased presence”. In data set [2] (PP2 5 μM 48 h then IFN-γ and FasL, without PP2 37%), this compound registered a TUNEL-positive cells of 8%. For the same compound, in data set [3] (A549 cells, PP2 5 μM 48 h, okadaic acid 1 μg/mL), the “okadaic acid-induced hyperphosphorylation of K18/K8” value is given as “reversed”. Besides, the “decrease of global phosphorylation of K8” value in data set [3] (setting [17]) is reported as 38%. In addition, the “decrease of global phosphorylation of K18” value in data set [3] (setting [17]) worked out at 43%. For the same compound, the “K18 S34 and K8 S432 phosphorylation” value in data set [3] (immunoblot, PP2 5 μM 48 h) is on record as “significant decrease”. In data set [4] (PP2 1 mg/kg ip 4d, Fas challenge), the “liver TUNEL-positive cells” value is reported as “fewer TUNEL-positive cells”. Also, the “SRC phosphorylation at stimulatory phospho-site Y416 in liver” value in data set [4] (female livers) is listed as “not female”; in [4] (male livers) it was “decreased”. For the same compound, the “hepatocyte keratin filament organization” value in data set [4] (female livers) is “not female”; in [4] (male livers), “normalized keratin filaments”. The ALT levels result in data set [4] (setting [18]) is “not female”; in data set [4] (setting [19]), “improved”. Besides, the parenchymal liver hemorrhage result in data set [4] (setting [18]) is given as “not female”; in data set [4] (setting [19]), “improved”. In addition, the “increase in serum alanine aminotransferase (ALT) level after Fas treatment” value in data set [4] (male mice) was “significantly reduced”. For the same compound, the PP2 in serum result in data set [5] (1 mg/kg, 1 h after administration) is recorded as “no detectable PP2”. In addition, the PP2 in liver entry in [5] (after 4 h, male or female mice) is listed as “no detectable PP2”; in data set [5] (male and female FVB/N mice, 1 mg/kg, 1 h after administration) it was “detected”. The “PP2 levels in male mouse liver compared to female mouse liver” value in [5] (as a function of time) was “significantly higher”. For the same compound, the tolerability in cells result in [6] is reported as “not well tolerated”. In addition, in data set [7] (PP2 vs vehicle), the tested necrosis markers result is “no significant difference”. Also, the histologic protection entry in data set [7] (male compared with female PP2-treated mice) was “significant histologic protection”. For the same compound, the “body or liver weight” value in data set [8] is reported as “does not have an effect; also recorded: no significant effect”.

Regarding 4′-N-benzoylstaurosporine [PKC412], in data set [9], the “keratin aggregate-containing cells (mean)” value is recorded as 13%. Further, the “epithelial monolayer integrity after rotation” value in [10] was “remained fully intact”. Also, the “fragility of mutant epithelial sheets” value in [11] is listed as “rescued fragility”. The EC50 in data set [12] worked out at 0.084 µM. For the same compound, in data set [13] (EBS K14.R125C cells vs vehicle-treated), the “phosphorylation at AGC-kinase motif RXXpS/pT” value is listed as “significant reduction in phosphorylation”. Besides, in [13] (NHK and K14.R125C cells vs vehicle), the “K17 phosphorylation at P-S44” value is recorded as “significantly reduced”. For the same compound, in data set [13] (vs DMSO-treated cells), the “DSP phosphorylation at S165 and S166” value is given as “significantly reduced”; the “DSP phosphorylation at S2849” value is “significantly reduced”. The “DSP at sites of cell-cell contacts” value in [14] was “significant increase”. Also, in data set [4] (PKC412 25 mg/kg ip daily 4d, Fas antibody 0.15 μg/g 5 h), the “protection from Fas-induced liver injury, male versus female” value is given as “equally protects both sexes”. Further, in [4] (setting [20]), the ALT levels result is “significantly reduced” and the extent of hemorrhage result was “significantly reduced”. For the same compound, the “increase in serum alanine aminotransferase (ALT) level after Fas treatment” value in data set [4] (male mice) is recorded as “significantly reduced”. Also, the “K18 S34 and K8 S432 phosphorylation” value in data set [15] is “no effect”. For the same compound, in data set [16], the “tolerability, single oral dose” value was “well tolerated”.
